Source: PubChem BioAssay AID489041 (Sanford-Burnham Center for Chemical Genomics, 2010)
Activity calls are given as the source filed them. How the calls were made is not given here.

What follows are molecules tested on HEK-293T NF-kB luciferase reporter counterscreen, luminescence (assay: inhibitors of HEK-293T NF-kB luciferase – HEK-293T cells, luminescence, counter-screen for T-cell antigen receptor NF-kB inhibitors, dose response (AID 489041)).

Compound | IC50
CC1CCN(c2c(NCc3ccc(C(=O)N4CCc5ccccc54)cc3)c(=O)c2=O)CC1 | 7.14 µM
CCCCS(=O)(=O)/C=C\C=C/S(=O)(=O)CCCC | 20.2 µM (inactive)
CC1(C)C[C@H]2C=C(C=O)[C@]3(C=O)C[C@]3(C)[C@H]2C1 | 31.1 µM (inactive)
O=C1c2cccc3cc([N+](=O)[O-])cc(c23)C(=O)N1CCN1CCCC1 | > 80 µM (inactive)
COc1ccc(C2=NOC(C(=O)NCc3cccs3)C2)cc1OC (stereo unspecified) | 35.2 µM (inactive)
COc1ccc(N(C(=O)c2ccccc2C)S(=O)(=O)c2cccs2)cc1 | > 80 µM (inactive)
CCOc1ccc(S(=O)(=O)N2c3ccccc3CC2C)cc1 (stereo unspecified) | 5.98 µM
O=C(Nc1ccc(Cl)c(S(=O)(=O)N2CCOCC2)c1)c1ccc(OCC2CCCO2)cc1 (stereo unspecified) | 3.14 µM
COc1cc(C(=O)N2CCN(c3cccc(C)c3C)CC2)cc(OC)c1OC | 12.5 µM
O=C(NNc1ccnc2cc(Cl)ccc12)C1CCCCC1 | 0.33 µM
CC(=O)Nc1ccc(S(=O)(=O)N2CCCc3ccccc32)cc1 | 26.6 µM (inactive)
CCCCN=C[C@]12CCC(O)CC1(O)CCC1[C@@H]2CC[C@]2(C)[C@H](C3C=CC(=O)O3)CCC12O (stereo partly specified) | 0.34 µM
CCCCCCCCn1c2c(c(=N)c3ccccc31)CCC2 | 1.39 µM
Cc1ccc(S(=O)(=O)Nc2cccc(-c3ccc4nncn4n3)c2)cc1 | 18.4 µM
COc1ccc([C@H]2CC(=O)C=C(c3c(OC)cccc3OC)C2)cc1 | 10.2 µM
COc1ccccc1-c1nnc2n1N=C(c1ccc(O)c(O)c1)CS2 | 2.41 µM
CCCCc1ccc(NC(=O)C(=O)NCCN2CCN(Cc3ccc([N+](=O)[O-])cc3)CC2)cc1 | 0.4 µM
Cc1cc(C)cc(C(=O)N2CC(=O)Nc3ccccc32)c1 | 4.64 µM
CC(=O)NC(c1ccc2ccccc2c1)c1ccc2cccnc2c1O (stereo unspecified) | 41.3 µM (inactive)
Nc1nc(-c2ccccc2)cc(N2CCCCC2)n1 | 2.23 µM
Cc1ccc2[nH]c(-c3cccc(F)c3)cc(=O)c2c1 | > 80 µM (inactive)
COc1ccc(S(=O)(=O)Nc2cccc(-c3ccc4nncn4n3)c2)cc1F | 49.2 µM (inactive)
COc1cc(/C=C2/SC(=Nc3ccc(O)cc3)NC2=O)ccc1O | 3.51 µM
COc1ccc(-n2nnnc2-c2ccccc2)cc1 | > 80 µM (inactive)
CN(Cc1ccccc1)C1=CC(=[N+]2CCCC2)CC(C)(C)C1 | 1.61 µM
COc1cccc(-c2cc(=O)c3cc(NC(=O)c4ccc(N(C)C)cc4)ccc3[nH]2)c1 | > 80 µM (inactive)

Compound | IC50
CC(C)c1oc(=O)cc2c1[C@@H](O)[C@H]1OC(=O)[C@@]3(C)C[C@@H](O)[C@@H](O)[C@@]2(C)C13 (stereo partly specified) | 0.75 µM
COc1ccc(-c2ccc3oc(-c4ccc(OC)cc4)c(C#CCO)c3c2)cc1 | 14.2 µM
COc1ccc(C2=Nn3c([n+](C)c4ccccc43)SC2)cc1 | 2.63 µM
O=C(NN=Cc1c(O)ccc2ccccc12)c1ccc2c(c1)OCO2 | 0.74 µM
COc1ccc(CCNc2nnc(Sc3nnnn3-c3ccccc3)s2)cc1OC | 8.36 µM
COc1ccccc1CNS(=O)(=O)c1ccc(-c2cc(C)no2)cc1 | 8.48 µM
COc1cc(C2C(C#N)=C(N)Oc3cc4c(cc32)OCO4)cc(OC)c1OC (stereo unspecified) | 3.86 µM
NC(=O)CC(NC(=O)c1ccc(Br)cc1)c1ccc(N2CCCCCC2)c([N+](=O)[O-])c1 (stereo unspecified) | 29.3 µM (inactive)
CCOc1ccc2c(c1)sc(N)[n+]2Cc1cc(C)cc2cccnc12 | 7.7 µM
COC(=O)c1ccccc1NC1=C/C(=N\S(=O)(=O)c2cccs2)c2ccccc2C1=O | 1.04 µM
CSc1ccc(COC(=O)c2cc([N+](=O)[O-])ccc2N2CCOCC2)cc1 | 1.7 µM
CC1(C)Cc2nc3sc4c(=O)n(CC(=O)NCc5ccccc5)cnc4c3cc2CO1 | > 80 µM (inactive)
COc1ccc(OC)c(-c2nnc3n2N=C(c2ccc(OC)c(OC)c2)CS3)c1 | 0.65 µM
Cc1ccc(S(=O)(=O)NCc2ccncc2)cc1C | 15.5 µM
CC(C)(C)c1ccc(C(=O)O/N=C(\N)c2ccccn2)cc1 | 0.23 µM
CN(Cc1ccccc1)C1=CC(=[N+]2CCCCC2)CC(C)(C)C1 | 0.73 µM
Cc1ccc(O)c(NC(=O)c2cc(-c3ccco3)on2)c1 | > 80 µM (inactive)
CCCN(CCC)C1=CC(=[N+]2CCCC2)CC(C)(C)C1 | 2.39 µM
Cn1nc([N+](=O)[O-])nc1Sc1nnc(-c2ccccc2)o1 | 37.5 µM (inactive)
COc1ccc(Nc2cc(C)nc(-n3nc(C)cc3C)n2)cc1 | 6.55 µM
CCOc1cc(C#N)c(NC(=O)c2cccnc2)cc1OCC | 37.7 µM (inactive)
O=C(N/N=C(\c1ccccc1)c1cccnc1)c1cccc(F)c1 | > 80 µM (inactive)
COC(=O)c1[nH]c2ccc(F)cc2c1NS(=O)(=O)c1ccc(OC)cc1 | 11.8 µM
CCCCCOC(=O)c1[nH]c2c(c1C)C(=O)CC(c1ccco1)C2 (stereo unspecified) | 0.41 µM
CCc1ccc2nc(SCC(=O)Nc3ccccc3N3CCOCC3)c(C#N)cc2c1 | > 80 µM (inactive)
